Source: patent US8680153B2, “Method for correcting a lipid imbalance in a subject” (The Royal Institution for the Advancement of …, priority 2005, dated 2014)

What was measured:
[1] = tested on: cytokines/chemokines (IL-17, IL-1β, IL-6, IL-7, IL-9, IL-10, IL-15, G-CSF, MIP-1a, KC); test: Cytokine/chemokine levels in lung homogenates of infected mice; type: in vivo
Procedure: Lung Homogenates. Lungs from infected mice were harvested and homogenized for 60 seconds at high speed (homogenizer PT10135; Brinkmann Instruments Co., Mississauga, ON) in 4 mL of sterile PBS (INVITROGEN™). Serial, 10-fold dilutions of lung homogenates were plated on petri dishes containing TSA. The number of CFU per lung was counted after overnight incubation at 37° C. For cytokine measurements, lung homogenates were centrifuged at 1500×g at 4° C. for 10 minutes; the supernatants were then removed, aliquoted in new tubes and stored at −20° C. until assayed for cytokine concentrations.
Cytokine/chemokine measurements. The levels of 10 cytokines/chemokines (IL-1β, IL-6, IL-7, IL-9, IL-10, IL-15, IL-17, G-CSF (granulocyte colony-stimulating factor), MIP-1a (macrophage inflammatory protein 1 alpha), and N51/KC (cytokine-induced neutrophil chemoattractant), were assessed in lung homogenates prepared from infected animals with the Mouse Cytokine/Chemokine LINCOplex kit (Linco Research, Inc, St-Charles, Mo.) using Luminex™ technology and assayed with the Luminex100LS™ system by Linco Research, Inc. The cytokine detection limit for this assay was 3.2 pg/ml.

[2] = tested on: osteoblasts and osteoclasts; test: Osteoblast and osteoclast counts in femur (H&E, TRAP); type: in vivo, mice
Procedure: Fenretinide Diet Supplementation. Examples 2 to 6: fenretinide (Sigma-Aldrich, Oakville, ON) powder was resuspended in 95% ethanol and subsequently incorporated in the Peptamen liquid diet. It was protected from light and kept at 4° C. before being given to the mice (5 mg/kg per day per mouse). Mock-treated diets were prepared similarly by adding ethanol to the Peptamen diet but omitting the fenretinide supplementation. The diet was given every morning for 28 consecutive days with specific monitoring of the quantity consumed by the mice in each cage. Examples 7 to 12: fenretinide powder was kindly provided by Dr. Robert Smith (NIH; Bethesda, Md., USA). Fenretinide was resuspended in 95% ethanol to make a 2 μg/μL concentration. Approximately 40 μL of this preparation was incorporated into the Peptamen liquid diet (5 mg/kg per day per mouse). The prepared food containing fenretinide was then stored in the dark at 4° C. for no more than 3 hours prior to being administered to the mice. To ensure that the entire drug dose was consumed, the mice were given 10 mL of fenretinide-treated Peptamen, which represents ⅔ of the daily mouse food consumption, in the late afternoon. […] During the treatment period each mouse was kept in a separate cage (including WT mice) and was monitored to ensure that the entire amount of Peptamen containing the fenretinide or with out was consumed. […]

P. aeruginosa = test: Bacterial load (CFU) in the lungs of infected mice; type: in vivo
Procedure: P. aeruginosa Inoculum Preparation. In order to establish a model of prolonged lung infection, bacteria-impregnated agar beads were freshly prepared the day before each experiment according to established methods (Guilbault, et al. (2005) Laboratory Animals 39:336-352), and stored at 4° C. overnight. Briefly, the bacteria (P. aeruginosa strain 508) from an overnight culture were grown for approximately 3 hours in a shaking incubator at 37° C., until it reached a mid-log phase. The log-phase bacteria were concentrated and resuspended in 5 mL of Dulbecco's phosphate-buffered saline (PBS; INVITROGEN™, Mississauga, ON). A 5 mL aliquot of the concentrated bacterial broth was added to 52° C. 1.5% trypticase soy agar (DIFCO®, Detroit, Mich.) (agarose beads free of bacteria were prepared using PBS instead of a bacterial suspension). This mixture was quickly added to 52° C. heavy mineral oil and stirred rapidly, first at room temperature for 6 minutes, followed by ice cooling with continuous stirring for 10 minutes. The oil-agar mixture was centrifuged to sediment the beads. The beads were washed with PBS and their size was verified microscopically and only those preparations containing beads predominantly 100-250 micrometers in diameter were used as inoculum. Inoculum was prepared by diluting the beads suspension to 1×10^6 CFUs per 50 μl (injection volume).
Mouse Lung Infection. Mice were anaesthetized with a combination of ketamine (7.5 mg/mL) and xylazine (0.5 mg/mL) administered intraperitoneally at a dose of 20 mL/kg of body weight. Once the mouse was successfully anaesthetized, the animal was installed under binoculars (Microscope M650, Wild Leitz, Willowdale, ON) in the vertical position and held on a restraining board by holding the animal by its upper incisor teeth (Guilbault, et al. (2005) supra). […] Mice were monitored 3 times daily; the maximum weight loss allowed was 15%. […]
Lung Homogenates. […] The number of CFU per lung was counted after overnight incubation at 37° C. […]

With `CC1=C(/C=C/C(C)=C/C=C/C(C)=C/C(=O)Nc2ccc(O)cc2)C(C)(C)CCC1` [fenretinide, all-trans-N-(4-hydroxyphenyl) retinamide] as the compound, how does the “Levels of IL-1β, IL-9, KC and MIP-1a vs mock-treated” value ([1]; Cftr-KO mice, not statistically significant) read?
The value was “trend towards decreased levels”.

And the “IL-17 level, decrease vs Cftr-KO controls” value ([1]; Cftr-KO mice, p=0.049)?
The value was 2.9 fold.

And the “All cytokines tested, fenretinide-treated vs untreated” value ([1]; WT mice)?
Its value is “no difference”.

And the “IL-6, G-CSF, IL-15, IL-10 and IL-7 levels” value ([1]; time point tested)?
Its value is “not affected”.

And the “Number of osteoclasts, treated vs untreated” value ([2]; Cftr-KO and WT mice)?
The value was “No significant difference”.

What about the “Amount of osteoblasts vs untreated Cftr-KO” value ([2]; Cftr-KO mice, p<0.05) of the same compound?
The value was “increase”.

And the “Decrease of median number of bacteria vs untreated Cftr-KO” value (P. aeruginosa; Cftr-KO mice, day 3 post-infection)?
Its value is “about 10 fold”.

And the “Median bacterial load in the lungs” value (P. aeruginosa; fenretinide-treated Cftr-KO mice, day 3 post-infection, p=0.004 vs untreated)?
Its value is 3.8×10^4 CFU/lung.

What about the “Effect on median number of bacteria in the lungs vs untreated infected controls” value (P. aeruginosa; wild-type mice, p=0.240) of the same compound?
The value was “no significant effect”.
